Assay results: the NIST ThermoML archive (doi:10.1021/je0502647)
Numbers after ± are expanded uncertainties.

Assay: activity coefficient (dimensionless); of the first substance listed, at infinite dilution; xn = mol fraction of the nth substance listed
Conditions: Liquid, gas stripping method, x1 = 0

SMILES	activity coefficient (249.94 K)	activity coefficient (270.06 K)	activity coefficient (289.99 K)	activity coefficient (309.98 K)	activity coefficient (329.99 K)	activity coefficient (250 K)	activity coefficient (270 K)	activity coefficient (310 K)	activity coefficient (249.98 K)	activity coefficient (270.01 K)
C/C=C\C [(Z)-2-butene] + C=CCO	5.53 ± 0.17	5.28 ± 0.16	5.06 ± 0.15	4.85 ± 0.15	4.57 ± 0.14					
C/C=C/C [(E)-2-butene] + C=CCO			5.67 ± 0.17		4.91 ± 0.15	6.23 ± 0.19	5.85 ± 0.18	5.38 ± 0.16		
CCCC [butane] + C=CCO			8.2 ± 0.25		6.79 ± 0.2			7.58 ± 0.23	9.71 ± 0.29	8.84 ± 0.27
CC(C)C [2-methylpropane] + C=CCO	10.5 ± 0.3		8.83 ± 0.26		7.14 ± 0.21			8.11 ± 0.24		9.51 ± 0.29
CCCl [chloroethane] + C=CCO	3.09 ± 0.09	3.07 ± 0.09	2.99 ± 0.09	2.87 ± 0.09	2.69 ± 0.08					
COC [dimethyl ether] + C=CCO	1.23 ± 0.04	1.22 ± 0.04	1.2 ± 0.04	1.2 ± 0.04	1.16 ± 0.04					
C=CC=C [1,3-butadiene] + C=CCO			4.02 ± 0.12		3.59 ± 0.11	4.12 ± 0.12		3.89 ± 0.12		4.06 ± 0.12
C=CCC [1-butene] + C=CCO	6.08 ± 0.18		5.62 ± 0.17		5.04 ± 0.15			5.35 ± 0.16		5.85 ± 0.18
CC(F)F [1,1-difluoroethane] + C=CCO	5.09 ± 0.15	4.94 ± 0.15	4.68 ± 0.14	4.39 ± 0.13	4.02 ± 0.12					
